“And” between values parts separate entries of the source, which are not always exact repeats. Equal values may be shown once.
Key:
[1] = test system: SH-SY-5Y human neuroblastoma cells; assay: PHF-1 immunoreactivity (phospho-tau) in differentiated SH-SY-5Y cells with or without folate; type: cell-based
Procedure: Cultured cells were used to test individual agents and formulations. […] For immunocytochemistry to detect paired helical filament-1 (PHF-1) staining (as an index of tau phosphorylation), cells were fixed for 15 minutes with 4% paraformaldehyde in 0.1 M phosphate buffer and immunostained by sequential reaction with a mouse monoclonal PHF-1 antibody that was raised against tau from paired helical filaments isolated from the brains of Alzheimer disease patients. Incubation with PHF-1 antibody was followed by rhodamine conjugated goat anti-mouse IgG and visualization using methods known in the art. […] Cortical neurons were prepared from 12 day embryonic C57/B16 day old mice using known methods. Both the SH-SY-5Y cultures and the cortical neurons were processed for PHF-1 (paired helical filament 1) immunofluorescence using known methods ([…] et al., 1999 supra). Control cells cultured in the continued presence of normal folate levels were also processed. Phospho-tau was also examined using immunoblot analysis. […] The homogenates were sedimented at 13,000×g for 15 minutes and the resulting supernatant was electrophoresed, blotted, and the blot stained for PHF-1 using known methods.

[2] = test system: differentiated SH-SY-5Y cells; assay: Intracellular ROS by DCFD fluorescence in differentiated SH-SY-5Y cells; type: cell-based, human
Procedure: Cultured cells were used to test individual agents and formulations. In general, SH-SY-5Y human neuroblastoma cells were cultured in DMEM (Cellgro) containing 10% fetal bovine serum in 5% CO2.
For treatments with Abeta, differentiated cultures were transferred to medium without serum and treated for two hours with 20 μM Abeta25-35 (Sigma Chemical Co., St. Louis, Mo.). […] Louis, Mo.). In experiments calling for treatment of cell cultures with N-acetyl cysteine (NAC; NALC), cultures were treated with 10 mM NAC (Sigma Chemical Co., St. Louis, Mo.) after the culture was grown for two hours in serum-free medium.
Intracellular reactive oxygen species (ROS) were monitored as described in Ekinci et al., 1999 (J. Biol. Chem., 274:30322-30327). Briefly, cells were incubated for 30 minutes with dichloro-fluorescein diacetate (DCFD; acetoxymethyl ester; Molecular Probes, Inc., Eugene, Oreg.), which is used to detect intracellular peroxide levels. Incubation was followed by rinsing of cultures in serum-free medium and immediate capture of images using UV optics. Images were captured under epifluorescent and phase-contrast illumination using a DAGE CCL-72 cooled CCD camera via a Scion LG-3 frame grabber operated by NIH Image (see the Internet at rsb.info.nih.gov/nih-image). Images were then stored as PICT files on a Macintosh Power PC 7100AV for subsequent analysis. At least 100 cells in randomly-selected fields from duplicate cultures derived from multiple experiments were scored for fluorescent intensity using NIH Image analysis software. Representative background areas devoid of cells were similarly analyzed and subtracted from cell values to yield net densitometric values. All fields for each individual assay were illuminated, captured, and processed under identical settings. Corresponding phase-contrast images were obtained. Cell aggregates were excluded from the assays; only individual cells were quantified. Values were exported to Excel for statistical analyses using Student's t test.
For monitoring of intracellular peroxide concentrations as an index of ROS, cultures received 10 μl/ml DFCD (2′7′-dichlorofluorescein diacetate; Kodak) for 20 minutes. Cultures were then visualized under fluorescein UV optics (perikaryon; Ekinci and Shea, 1999, supra).

[3] = test system: differentiated SH-SY-5Y cells; assay: Externalized phosphatidylserine (meracyanine fluorescence) as index of apoptosis in SH-SY-5Y cells; type: cell-based, human
Procedure: Levels of externalized phosphatidylserine (PS) were used as a measure of apoptosis (Rimon et al., 1997, J. Neurosci. Res., 48:563-570). Briefly, cultures were subjected to treatments then rinsed with PBS and incubated with 10 μl/ml merocyanine (Upstate Biotech, Lake Placid, N.Y.), followed by examination under rhodamine optics (Ekinci et al, 1999, J. Biol. Chem., 274:30322-30327).
The question of whether folate deficiency is associated with apoptosis was investigated. […] Overall detachment, a further sign of cell death, was evident by the seventh day in the serum-deprived cultures. The detachment phenomenon precluded longer experiments.
The effect of ALCAR on differentiated SH-SY-5Y cells treated with Abeta was examined. Cells were cultured in 20 μM Abeta in the presence and absence of ALCAR. Some cultures were pretreated with 50 μM ALCAR for 30 minutes. In these experiments, the ALCAR-containing medium was replaced with medium containing Abeta and no ALCAR then incubated for two hours before being assayed. Cultures were assayed for ROS, apoptosis, and ATP.

[4] = Snowdon et al., 2000; cited from earlier work

Nc1nc2ncc(CNc3ccc(C(=O)N[C@@H](CCC(=O)O)C(=O)O)cc3)nc2c(=O)[nH]1 [folate, folic acid]
PHF-1 (phospho-tau) Mean ± SEM ([1]; +Folate 4 hr): 40.3 ± 3.9
% increase in phospho-tau compared to control ([1]; +Folate 24 hr): −5.5%
PHF-1 (phospho-tau) Mean ± SEM ([1]; +Folate 24 hr): 38.1 ± 3.1
PHF-1 levels after cultures received medium containing folate ([1]; after folate deprivation for 24 hours): returned to control levels within four hours
average increase in PHF-1 immunofluorescence ([1]; folate deficiency, two hours): 3.5 fold
average increase in phospho-tau ([1]; folate deprivation for 24 hours): 29%
accumulation of phospho-tau after restoration of folate ([1]; following folate deprivation): reversed within two hours
total tau levels (monoclonal antibody 5E2) ([1]; two hour deprivation of folate): not altered
% increase in phospho-tau compared to control ([1]; −Folate 4 hr): 29%
PHF-1 (phospho-tau) Mean ± SEM ([1]; −Folate 4 hr): 52.0 ± 3.4
% increase in phospho-tau compared to control ([1]; −Folate 24 hr): −1.5%
PHF-1 (phospho-tau) Mean ± SEM ([1]; −Folate 24 hr): 39.7 ± 2.6
Abeta-induced increase in ROS ([2]; 5×folate (20 mg/l), 20 μM Abeta two hours): prevented
ROS in otherwise untreated cells ([2]; 10×folate compared to 1-5×folate): marginal decrease in ROS
ROS Mean ± SEM ([2]; folate (control), two hours): 7.6 ± 0.3
increase in ROS ([2]; folate deprivation, compared to cells cultured in the presence of folate (Example 6)): 64±5%
ROS Mean ± SEM ([2]; no folate, two hours): 10.5 ± 0.5
ROS % increase vs. control ([2]; no folate, two hours, vs cultures receiving folate): 38±4% and 38%
ROS ([2]; single agent, control cells and cells exposed to Abeta, two hours): reduced ROS
meracyanine fluorescence (externalized PS) Mean ± SEM ([3]; +folate, Day 1, without serum): 34.0 ± 1.2 arbitrary fluorescent units
meracyanine fluorescence (externalized PS) Mean ± SEM ([3]; +folate, Day 3, without serum): 40.9 ± 2.0 arbitrary fluorescent units
meracyanine fluorescence (externalized PS) Mean ± SEM ([3]; +folate, Day 5, without serum): 63.7 ± 3.6 arbitrary fluorescent units
meracyanine fluorescence (externalized PS) Mean ± SEM ([3]; −folate, Day 1, without serum): 31.2 ± 1.4 arbitrary fluorescent units
meracyanine fluorescence (externalized PS) Mean ± SEM ([3]; −folate, Day 3, without serum): 44.1 ± 4.1 arbitrary fluorescent units
meracyanine fluorescence (externalized PS) Mean ± SEM ([3]; −folate, Day 5, without serum): 112.7 ± 5.7 arbitrary fluorescent units
concentration in spinal fluid versus plasma [4]: concentrated four-fold within spinal fluid over that observed within plasma
